In patent publication EP1965829B1, “ALTERNATIVE OXIDASE AND USES THEREOF” (Tampereen yliopisto, priority 2005, dated 2007):

Legend:
Flp-In™ T-REx™-293 cells [1] = experiment: Succinate oxidation by digitonin-permeabilized cells, Clark oxygen electrode; assay type: cell-based, human; conditions: AOX-induced cells
Drosophila mitochondria = assay type: biochemical, Drosophila melanogaster
Flp-In™ T-REx™-293 cells [2] = experiment: Respiration of digitonin-permeabilized transduced or transfected cells; assay type: cell-based, human; conditions: 10 µM n-propyl gallate

CCCOC(=O)c1cc(O)c(O)c(O)c1 [n-propyl gallate]
inhibition of cyanide-resistant succinate oxidation (Flp-In™ T-REx™-293 cells [1]; 100 µM propyl gallate added after cyanide): fully inhibited
inhibition of oxygen uptake (Flp-In™ T-REx™-293 cells [1]; propyl gallate in the absence of cyanide): 5%
effect of AOX inhibitors on respiration (Drosophila mitochondria): only a small effect
sensitivity of residual cyanide-insensitive respiratory activity to AOX inhibitors (Drosophila mitochondria): sensitive
inhibition of residual respiration in the presence of cyanide (Flp-In™ T-REx™-293 cells [2]; pWPI-AOX-transduced cells): completely inhibited
inhibition of respiration in the presence of cyanide (Flp-In™ T-REx™-293 cells [2]; pcDNA5-AOX-transfected cells): almost completely inhibited
